From ChEMBL document CHEMBL1641578, “Design and synthesis of 3-(azol-1-yl)phenylpropanes as microbicidal spermicides for prophylactic contraception” (Bioorg Med Chem Lett, 2011)
≈ marks a conversion by molar mass, not a printed value.

test system: Candida parapsilosis; assay: Antifungal activity against Candida parapsilosis after 48 hrs by broth microdilution assay; format: functional; conditions: Lodderomyces parapsilosis

Structure (SMILES)	MIC [µg/mL]
O=[N+]([O-])c1cn(CCC(Oc2ccc(C(F)(F)F)cc2)c2ccccc2)cn1 (configuration not stated)	> 50
O=[N+]([O-])c1cn(C/C=C/c2ccccc2)cn1	> 50
O=C(CCn1cnc([N+](=O)[O-])c1)c1ccccc1	> 50
OC(CCn1nnc2ccccc21)c1ccccc1 (configuration not stated)	> 50
OC(CCn1ccnc1)c1ccccc1 (configuration not stated)	> 50
FC(F)(F)c1ccc(OC/C=C/c2ccccc2)cc1	> 50
Cc1ncc([N+](=O)[O-])n1CCC(O)c1ccccc1 (configuration not stated)	> 50
Cc1ncc([N+](=O)[O-])n1CCC(Oc1ccc(C(F)(F)F)cc1)c1ccccc1 (configuration not stated)	> 50
CCCCCCCCCc1ccc(OCCOCCOCCOCCOCCOCCOCCOCCOCCO)cc1 [NONOXYNOL 9]	50 (≈ 81.1 µM)
OC(CCn1cnc2ccccc21)c1ccccc1 (configuration not stated)	> 50
OC(Cn1cncn1)(Cn1cncn1)c1ccc(F)cc1F [FLUCONAZOLE]	0.5 (≈ 1.63 µM)
O=C(CCn1nnc2ccccc21)c1ccccc1	50 (≈ 199 µM)
O=[N+]([O-])c1cn(CCC(O)c2ccccc2)cn1 (configuration not stated)	> 50
O=C(CCn1cncn1)c1ccccc1	> 50

test system: Candida albicans; assay: Antifungal activity against Candida albicans MTCC-183 after 48 hrs by broth microdilution assay; format: functional; conditions: MTCC-183, 48 h

Structure (SMILES)	MIC [µg/mL]
O=[N+]([O-])c1cn(CCC(Oc2ccc(C(F)(F)F)cc2)c2ccccc2)cn1 (configuration not stated)	> 50
O=[N+]([O-])c1cn(C/C=C/c2ccccc2)cn1	> 50
O=C(CCn1cnc([N+](=O)[O-])c1)c1ccccc1	> 50
OC(CCn1nnc2ccccc21)c1ccccc1 (configuration not stated)	> 50
OC(CCn1ccnc1)c1ccccc1 (configuration not stated)	> 50
FC(F)(F)c1ccc(OC/C=C/c2ccccc2)cc1	> 50
Cc1ncc([N+](=O)[O-])n1CCC(O)c1ccccc1 (configuration not stated)	> 50
Cc1ncc([N+](=O)[O-])n1CCC(Oc1ccc(C(F)(F)F)cc1)c1ccccc1 (configuration not stated)	> 50
CCCCCCCCCc1ccc(OCCOCCOCCOCCOCCOCCOCCOCCOCCO)cc1 [NONOXYNOL 9]	> 50
OC(CCn1cnc2ccccc21)c1ccccc1 (configuration not stated)	> 50
OC(Cn1cncn1)(Cn1cncn1)c1ccc(F)cc1F [FLUCONAZOLE]	0.25 (≈ 0.816 µM)
O=C(CCn1nnc2ccccc21)c1ccccc1	> 50
O=[N+]([O-])c1cn(CCC(O)c2ccccc2)cn1 (configuration not stated)	> 50
O=C(CCn1cncn1)c1ccccc1	> 50

test system: Candida albicans; assay: Antifungal activity against Candida albicans NCIM-3557 after 48 hrs by broth microdilution assay; format: functional; conditions: NCIM-3557, 48 h

Structure (SMILES)	MIC [µg/mL]
O=[N+]([O-])c1cn(CCC(Oc2ccc(C(F)(F)F)cc2)c2ccccc2)cn1 (configuration not stated)	> 50
O=[N+]([O-])c1cn(C/C=C/c2ccccc2)cn1	> 50
O=C(CCn1cnc([N+](=O)[O-])c1)c1ccccc1	> 50
OC(CCn1nnc2ccccc21)c1ccccc1 (configuration not stated)	> 50
OC(CCn1ccnc1)c1ccccc1 (configuration not stated)	> 50
FC(F)(F)c1ccc(OC/C=C/c2ccccc2)cc1	> 50
Cc1ncc([N+](=O)[O-])n1CCC(O)c1ccccc1 (configuration not stated)	> 50
Cc1ncc([N+](=O)[O-])n1CCC(Oc1ccc(C(F)(F)F)cc1)c1ccccc1 (configuration not stated)	> 50
CCCCCCCCCc1ccc(OCCOCCOCCOCCOCCOCCOCCOCCOCCO)cc1 [NONOXYNOL 9]	> 50
OC(CCn1cnc2ccccc21)c1ccccc1 (configuration not stated)	> 50
OC(Cn1cncn1)(Cn1cncn1)c1ccc(F)cc1F [FLUCONAZOLE]	0.25 (≈ 0.816 µM)
O=C(CCn1nnc2ccccc21)c1ccccc1	50 (≈ 199 µM)
O=[N+]([O-])c1cn(CCC(O)c2ccccc2)cn1 (configuration not stated)	> 50
O=C(CCn1cncn1)c1ccccc1	> 50

test system: Spermatozoa; assay: Spermicidal activity against human spermatozoa assessed as immobilization measured for 60 seconds by visual scoring; format: functional; design: concentration or dose not given beside the values; conditions: not given

Structure (SMILES)	Activity [%]
O=[N+]([O-])c1cn(CCC(Oc2ccc(C(F)(F)F)cc2)c2ccccc2)cn1 (configuration not stated)	40
O=[N+]([O-])c1cn(C/C=C/c2ccccc2)cn1	80
O=C(CCn1cnc([N+](=O)[O-])c1)c1ccccc1	100
OC(CCn1nnc2ccccc21)c1ccccc1 (configuration not stated)	100
OC(CCn1ccnc1)c1ccccc1 (configuration not stated)	90
FC(F)(F)c1ccc(OC/C=C/c2ccccc2)cc1	90
Cc1ncc([N+](=O)[O-])n1CCC(O)c1ccccc1 (configuration not stated)	70
Cc1ncc([N+](=O)[O-])n1CCC(Oc1ccc(C(F)(F)F)cc1)c1ccccc1 (configuration not stated)	70
CCCCCCCCCc1ccc(OCCOCCOCCOCCOCCOCCOCCOCCOCCO)cc1 [NONOXYNOL 9]	100
OC(CCn1cnc2ccccc21)c1ccccc1 (configuration not stated)	90
O=C(CCn1nnc2ccccc21)c1ccccc1	80
O=[N+]([O-])c1cn(CCC(O)c2ccccc2)cn1 (configuration not stated)	95
O=C(CCn1cncn1)c1ccccc1	60

test system: Candida albicans; assay: Antifungal activity against Candida albicans isolate CDRI after 48 hrs by broth microdilution assay; format: functional; conditions: not given

Structure (SMILES)	MIC [µg/mL]
O=[N+]([O-])c1cn(CCC(Oc2ccc(C(F)(F)F)cc2)c2ccccc2)cn1 (configuration not stated)	> 50
O=[N+]([O-])c1cn(C/C=C/c2ccccc2)cn1	> 50
O=C(CCn1cnc([N+](=O)[O-])c1)c1ccccc1	50 (≈ 204 µM)
OC(CCn1nnc2ccccc21)c1ccccc1 (configuration not stated)	50 (≈ 197 µM)
OC(CCn1ccnc1)c1ccccc1 (configuration not stated)	50 (≈ 247 µM)
FC(F)(F)c1ccc(OC/C=C/c2ccccc2)cc1	50 (≈ 180 µM)
Cc1ncc([N+](=O)[O-])n1CCC(O)c1ccccc1 (configuration not stated)	> 50
Cc1ncc([N+](=O)[O-])n1CCC(Oc1ccc(C(F)(F)F)cc1)c1ccccc1 (configuration not stated)	> 50
CCCCCCCCCc1ccc(OCCOCCOCCOCCOCCOCCOCCOCCOCCO)cc1 [NONOXYNOL 9]	> 50
OC(CCn1cnc2ccccc21)c1ccccc1 (configuration not stated)	50 (≈ 198 µM)
OC(Cn1cncn1)(Cn1cncn1)c1ccc(F)cc1F [FLUCONAZOLE]	0.25 (≈ 0.816 µM)
O=C(CCn1nnc2ccccc21)c1ccccc1	> 50
O=[N+]([O-])c1cn(CCC(O)c2ccccc2)cn1 (configuration not stated)	50 (≈ 202 µM)
O=C(CCn1cncn1)c1ccccc1	50 (≈ 248 µM)

test system: HeLa; assay: Cytotoxicity against human HeLa cells at 200 ug/ml after 24 hrs by MTT based colorimetric assay; format: cell-based; conditions: not given

Structure (SMILES)	Activity
O=[N+]([O-])c1cn(CCC(Oc2ccc(C(F)(F)F)cc2)c2ccccc2)cn1 (configuration not stated)	Non-toxic
O=[N+]([O-])c1cn(C/C=C/c2ccccc2)cn1	Non-toxic
O=C(CCn1cnc([N+](=O)[O-])c1)c1ccccc1	Non-toxic
OC(CCn1nnc2ccccc21)c1ccccc1 (configuration not stated)	Non-toxic
OC(CCn1ccnc1)c1ccccc1 (configuration not stated)	Non-toxic
FC(F)(F)c1ccc(OC/C=C/c2ccccc2)cc1	Non-toxic
Cc1ncc([N+](=O)[O-])n1CCC(O)c1ccccc1 (configuration not stated)	Non-toxic
Cc1ncc([N+](=O)[O-])n1CCC(Oc1ccc(C(F)(F)F)cc1)c1ccccc1 (configuration not stated)	Non-toxic
CCCCCCCCCc1ccc(OCCOCCOCCOCCOCCOCCOCCOCCOCCO)cc1 [NONOXYNOL 9]	Non-toxic
OC(CCn1cnc2ccccc21)c1ccccc1 (configuration not stated)	Non-toxic
O=C(CCn1nnc2ccccc21)c1ccccc1	Non-toxic
O=[N+]([O-])c1cn(CCC(O)c2ccccc2)cn1 (configuration not stated)	Non-toxic
O=C(CCn1cncn1)c1ccccc1	Non-toxic

test system: Trichomonas vaginalis; assay: Antitrichomonas activity against Trichomonas vaginalis after 48 hrs by trypan blue exclusion assay; format: functional; conditions: not given

Structure (SMILES)	MIC [µg/mL]
O=[N+]([O-])c1cn(CCC(Oc2ccc(C(F)(F)F)cc2)c2ccccc2)cn1 (configuration not stated)	12.5 (≈ 31.9 µM)
O=[N+]([O-])c1cn(C/C=C/c2ccccc2)cn1	25 (≈ 109 µM)
O=C(CCn1cnc([N+](=O)[O-])c1)c1ccccc1	25 (≈ 102 µM)
OC(CCn1nnc2ccccc21)c1ccccc1 (configuration not stated)	> 200
OC(CCn1ccnc1)c1ccccc1 (configuration not stated)	> 200
FC(F)(F)c1ccc(OC/C=C/c2ccccc2)cc1	> 200
Cc1ncc([N+](=O)[O-])n1CCC(O)c1ccccc1 (configuration not stated)	50 (≈ 191 µM)
Cc1ncc([N+](=O)[O-])n1CCC(Oc1ccc(C(F)(F)F)cc1)c1ccccc1 (configuration not stated)	25 (≈ 61.7 µM)
CCCCCCCCCc1ccc(OCCOCCOCCOCCOCCOCCOCCOCCOCCO)cc1 [NONOXYNOL 9]	37.4 (≈ 60.6 µM)
OC(CCn1cnc2ccccc21)c1ccccc1 (configuration not stated)	> 200
O=C(CCn1nnc2ccccc21)c1ccccc1	200 (≈ 796 µM)
O=[N+]([O-])c1cn(CCC(O)c2ccccc2)cn1 (configuration not stated)	25 (≈ 101 µM)
O=C(CCn1cncn1)c1ccccc1	> 200

test system: not listed separately; assay: Toxicity against Lactobacillus acidophilus at 200 ug/ml after 24 hrs by microplate reader; conditions: not given

Structure (SMILES)	Activity
O=[N+]([O-])c1cn(CCC(Oc2ccc(C(F)(F)F)cc2)c2ccccc2)cn1 (configuration not stated)	Non-toxic
O=[N+]([O-])c1cn(C/C=C/c2ccccc2)cn1	Non-toxic
O=C(CCn1cnc([N+](=O)[O-])c1)c1ccccc1	Non-toxic
OC(CCn1nnc2ccccc21)c1ccccc1 (configuration not stated)	Non-toxic
OC(CCn1ccnc1)c1ccccc1 (configuration not stated)	Non-toxic
FC(F)(F)c1ccc(OC/C=C/c2ccccc2)cc1	Non-toxic
Cc1ncc([N+](=O)[O-])n1CCC(O)c1ccccc1 (configuration not stated)	Non-toxic
Cc1ncc([N+](=O)[O-])n1CCC(Oc1ccc(C(F)(F)F)cc1)c1ccccc1 (configuration not stated)	Non-toxic
CCCCCCCCCc1ccc(OCCOCCOCCOCCOCCOCCOCCOCCOCCO)cc1 [NONOXYNOL 9]	Non-toxic
OC(CCn1cnc2ccccc21)c1ccccc1 (configuration not stated)	Non-toxic
O=C(CCn1nnc2ccccc21)c1ccccc1	Non-toxic
O=[N+]([O-])c1cn(CCC(O)c2ccccc2)cn1 (configuration not stated)	Non-toxic
O=C(CCn1cncn1)c1ccccc1	Non-toxic

test system: Candida albicans; assay: Antifungal activity against Candida albicans after 48 hrs by broth microdilution assay; format: functional; conditions: not given

Structure (SMILES)	MIC [µg/mL]
O=[N+]([O-])c1cn(CCC(Oc2ccc(C(F)(F)F)cc2)c2ccccc2)cn1 (configuration not stated)	> 50
O=[N+]([O-])c1cn(C/C=C/c2ccccc2)cn1	> 50
O=C(CCn1cnc([N+](=O)[O-])c1)c1ccccc1	50 (≈ 204 µM)
OC(CCn1nnc2ccccc21)c1ccccc1 (configuration not stated)	> 50
OC(CCn1ccnc1)c1ccccc1 (configuration not stated)	> 50
FC(F)(F)c1ccc(OC/C=C/c2ccccc2)cc1	> 50
Cc1ncc([N+](=O)[O-])n1CCC(O)c1ccccc1 (configuration not stated)	> 50
Cc1ncc([N+](=O)[O-])n1CCC(Oc1ccc(C(F)(F)F)cc1)c1ccccc1 (configuration not stated)	> 50
CCCCCCCCCc1ccc(OCCOCCOCCOCCOCCOCCOCCOCCOCCO)cc1 [NONOXYNOL 9]	> 50
OC(CCn1cnc2ccccc21)c1ccccc1 (configuration not stated)	> 50
OC(Cn1cncn1)(Cn1cncn1)c1ccc(F)cc1F [FLUCONAZOLE]	0.5 (≈ 1.63 µM)
O=C(CCn1nnc2ccccc21)c1ccccc1	> 50
O=[N+]([O-])c1cn(CCC(O)c2ccccc2)cn1 (configuration not stated)	> 50
O=C(CCn1cncn1)c1ccccc1	> 50
